Like-named read-outs stand apart in the source and are kept apart here.
Columns and labels:
4T1 cell line [1] = experiment: Cell viability assay (WST-1); format: cell-based; settings: Mus musculus
Procedure: (§1) [4-1-1] The breast cancer cell line of Experimental Method 1 was treated with 5-aminoimidazole-4-carboxamide ribonucleotide (AICAR) (which is not the compound of Production Example 6) or the compound of Production Example 6 at a concentration of 0 to 30 μM, and then cultured for 24 hours, 48 hours and 72 hours. Thereafter, the cultured cells were treated with WST-1 reagent, and then the absorbance at a wavelength of 450 nm was measured. Here, the WST-1 reagent allows the cell viability to be measured by changing the color of the culture medium depending on the level of the mitochondrial dehydrogenase present in the cell.
(§2) [4-1-2] The breast cancer cell line 4T1, BT549 or MDA-MB-231 of Experimental Method 1 was treated with each of the compound of Production Example 6 and 13 compounds, including the compounds of Production Examples 1 to 5 and 8 to 15 having a similar structure (YE-01, 02, 03, 04, 05, 08, 09, 10, 11, 12, 13, 14 and 15), at a concentration of 0 to 50 μM, and then cultured for 24 hours. Each of three types of gastric cancer cell lines, brain cancer cell lines and pancreatic cancer cell lines was treated with the compound of Production Example 6 or the compound of Production Example 8 having a similar structure at a concentration of 0 to 50 μM, and then cultured for 24 hours. Thereafter, the cultured cells were treated with WST-1 reagent according to the manufacturer's instruction, and after a certain time, the absorbance at a wavelength of 450 nm was measured. Here, the WST-1 reagent allows the cell viability to be measured by changing the color of the culture medium depending on the level of the mitochondrial dehydrogenase present in the cell.

MDA-MB-231 cell line = experiment: Cell viability assay (WST-1); format: cell-based; settings: Homo sapiens, MDA-MB-231, 24 h, read-out: cancer cell viability inhibited
Procedure: as §1, §2

BT549 cell line = experiment: Cell viability assay (WST-1); format: cell-based; settings: Homo sapiens
Procedure: as §1, §2

secreted MMP2 and MMP9 = experiment: Secreted MMP2 and MMP9 levels, TGF-β1-treated BT549 cells; format: cell-based, human; settings: BT549, with TGF-β1; FIG. 7B
Procedure: (§3) The culture medium of the breast cancer cell line of Experimental Method 1 was replaced with a serum-free medium. Then, the cells were treated with 2 ng/mL of TGF-β1 and the compound of Preparation Example 6 and cultured for 20 to 24 hours. Thereafter, as described in Experimental Method 3, the expression level of the protein was measured using an antibody specific for the EMT-related protein.

p-AMPK (Thr172) = experiment: AMPK activation by p-AMPK (Thr172) Western blot in BT549 cells; format: cell-based, human; settings: BT549, 10 μM, 24 hours; FIG. 3B
Procedure: [3-1] The breast cancer cell line of Experimental Method 1 above was treated with the compound of Production Example 6 at a concentration of 0 to 30 μM, and then cultured for 24 hours. Thereafter, the cells were harvested and lysed in RIPA buffer, and the protein was electrophoresed by SDS-PAGE, and then the expression level of the protein was analyzed using antibodies specific for AMPK and phospho-AMPK (Thr172). GAPDH or β-actin was used as a loading control for protein quantification.
[3-2] The three breast cancer cell lines (4T1, BT549, and MDA-MB-231) of Experimental Method 1 were treated with each of the compound of Production Example 6 and 13 compounds, including the compounds of Production Examples 1 to 5 and 8 to 15 having a similar structure (YE-01, 02, 03, 04, 05, 08, 09, 10, 11, 12, 13, 14 and 15), at a concentration of 10 μM, and then cultured for 24 hours. […] Thereafter, the cells were harvested and lysed in RIPA buffer, and the protein was electrophoresed by SDS-PAGE, and then the expression level of the protein was analyzed using antibodies specific for AMPK and phospho-AMPK (Thr172). GAPDH or β-actin was used as a loading control for protein quantification.

4T1 cell line [2] = experiment: Flow cytometry assay (Annexin V / PI); format: cell-based, mouse; settings: 4T1, 0 to 30 μM, 24 hours; FIG. 6
Procedure: The breast cancer cell line of Experimental Method 1 was treated with the compound of Production Example 6 at a concentration of 0 to 30 μM and cultured for 24 hours. Thereafter, the cultured cells were detached by trypsin, and then double-stained with Annexin V; recognizing apoptosis) and PI (propidium iodide; recognizing cell necrosis), and then the pattern and level of apoptosis were measured using flow cytometry.

[3] = tested on: cleaved-PARP, Bcl-2 and Cyclin D1 proteins; experiment: Apoptosis marker Western blot in MDA-MB-231 cell line; format: cell-based, human; settings: FIG. 5
[4] = tested on: EMT protein markers α-SMA, Vimentin, ZEB-1 and Slug; experiment: EMT protein marker Western blot, TGF-β1-treated BT549 cells; format: cell-based, human; settings: BT549, with TGF-β1; FIG. 7A
Procedure: as §3

With COc1ccc(OC)c(/C=C/C(=O)c2ccc(NS(=O)(=O)c3ccc(Cl)cc3)cc2)c1 [Production Example 6, (E)-4-chloro-N-(4-(3-(2,5-dimethoxyphenyl)acryloyl)phenyl)benzenesulfonamide] the cytotoxicity at 10 µM (4T1 cell line [1]; 4T1, 24 h, read-out: cancer cell viability inhibited) was at least 50%, the cytotoxicity at 10 µM (4T1 cell line [1]; 4T1, read-out: cell viability inhibited) was at least 50% and the cytotoxicity at 10 µM (MDA-MB-231 cell line) was at least 50%. The cytotoxicity at 10 µM (BT549 cell line; BT-549, 24 h, read-out: cancer cell viability inhibited) was at least 50%, the cytotoxicity at 10 µM (BT549 cell line; BT-549, read-out: cell viability inhibited) was at least 50% and the “level of secreted MMP2” value (secreted MMP2 and MMP9) was “significantly decreased”. The “level of secreted MMP9” value (secreted MMP2 and MMP9) was “significantly decreased”, the p-AMPK level (p-AMPK (Thr172)) was “effectively increased” and the “cells stained with annexin V or PI” value (4T1 cell line [2]) was “increased in a concentration-dependent manner”. For the same compound, the “level of Bcl-2 protein” value [3] was “decreased”, the “level of Cyclin D1 protein” value [3] was “decreased” and the “level of apoptosis marker cleaved-PARP protein” value [3] was “increased”. The Slug protein [4] was “decreased”, the Vimentin protein [4] was “decreased” and the ZEB-1 protein [4] was “decreased”. For the same compound, the α-SMA protein [4] was “decreased”.
